In US8097759B2, “Inflammatory cytokine release inhibitor” (Institute of Medicinal Molecular Design, Inc., priority 2000, dated 2012):
Each block holds one compound with its values, some of them ahead of it.

Tested on: NF-κB activation
Test: NF-κB activation reporter assay (pNFκB-Luc luciferase) under TNF-α stimulation
Type: cell-based, human
Conditions: HepG2 or HeLa cells, TNF-α 40 ng/ml, 4 hours; for inhibition at 1 µg/mL / inhibition at 10 µg/mL: Homo sapiens, read-out: The rate of inhibitory activity against NF-κB activation (%)
Description: Using a transfection reagent (Effectene; QIAGEN), the human hepatoma cell strain HepG2 or the human hysterocarcinoma cell strain HeLa was transfected with the firefly luciferase gene (Luc) contained plasmid (pNF κB-Luc Reporter Plasmid; […]) which contained oligonucleotide having five tandem copies of NF-κB binding sequences ([…]) on a upstream region of Luc, according to the QUAGEN's protocol and it was incuvated for 6-24 hours. After addition of TNF-α (40 ng/ml) with or without the test compound, the cells were incuvated for 4 hours, and intracellular luciferase activity was measured with PicaGene LT (TOYO INK MFG Co., Ltd.) and chemical luminescence measurement device ([…]luor Plus; TECAN). The inhibition ratio was measured as a ratio to the value of the luciferase activity without the test compound.

[1] = Concentration of the agent: 1 μg/mL
[2] = Concentration of the agent: 10 μg/mL

Compound: CC(C)(C)c1nc(NC(=O)c2cc(Br)ccc2O)sc1C#N [Compound 184]
inhibition at 1 µg/mL [1]: 20%
inhibition at 10 µg/mL [2]: 93.8%

Compound: O=C(Nc1cc(C(F)(F)F)cc(C(F)(F)F)c1)c1ccc(Cl)cc1O [Compound 98]
inhibition at 1 µg/mL [1]: 90.5%
inhibition at 10 µg/mL [2]: 98.2%

Compound: Cc1sc(NC(=O)c2cc(Br)ccc2O)nc1-c1ccccc1 [Compound 188]
inhibition at 1 µg/mL [1]: 83.6%
inhibition at 10 µg/mL [2]: 94.4%

Compound: Cc1ccc(O)c(C(=O)C=Cc2ccc3c(c2)OCCCO3)c1 [Compound 7, 3-(3,4-Dihydro-2H-benzo[b][1,4]dioxepin-7-yl)-1-(2-hydroxy-5-methylphenyl)propen-1-one]
inhibition at 1 µg/mL [1]: 30.4%
inhibition at 10 µg/mL [2]: 68.7%

Compound: O=C(Nc1ccc(Cl)cc1)c1cc2c(cc1O)[nH]c1ccccc12 [Compound 30, N-(4-Chlorophenyl)-2-hydroxy-9H-carbazole-3-carboxamide]
inhibition at 1 µg/mL [1]: 76.5%
inhibition at 10 µg/mL [2]: 98.1%

Compound: COc1cc(NC(=O)c2cc(Cl)ccc2OC(C)=O)cc2ccccc12 [Compound 34, 2-Acetoxy-5-Chloro-N-(4-methoxynaphthalen-2-yl)benzamide]
inhibition at 1 µg/mL [1]: 90.5%
inhibition at 10 µg/mL [2]: 98.5%

Compound: O=C(Nc1cc(Cl)cc(Cl)c1)c1cc(I)ccc1O [Compound 149]
inhibition at 1 µg/mL [1]: 85.4%
inhibition at 10 µg/mL [2]: 97.1%

Compound: Cc1ccc(NC(=O)c2cc(Cl)ccc2O)cc1C(F)(F)F [Compound 119]
inhibition at 1 µg/mL [1]: 88.1%
inhibition at 10 µg/mL [2]: 91.7%

Compound: O=C(Nc1cc(Cl)cc(Cl)c1)c1cc(F)ccc1O [Compound 146]
inhibition at 1 µg/mL [1]: 94.2%
inhibition at 10 µg/mL [2]: 97%

Compound: CC(C)(C)c1cc(NC(=O)c2cc(Br)ccc2O)cc(C(C)(C)C)c1 [Compound 163]
inhibition at 1 µg/mL [1]: 70.9%
inhibition at 10 µg/mL [2]: 82%

Compound: CCOC(=O)c1sc(NC(=O)c2cc(Br)ccc2O)nc1C(F)(F)F [Compound 216]
inhibition at 1 µg/mL [1]: 87.6%
inhibition at 10 µg/mL [2]: 96.5%

Compound: O=C(CC(c1ccc(O)cc1)c1ccc(Cl)cc1)c1c(O)cccc1O (stereo not shown) [Compound 4, 3-(4-Chlorophenyl)-1-(2,6-dihydroxyphenyl)-3-(4-hydroxyphenyl)propan-1-one]
inhibition at 1 µg/mL [1]: 42.9%
inhibition at 10 µg/mL [2]: 94.1%

Compound: O=C(Nc1cc(Cl)c(Cl)c(Cl)c1)c1cc(Br)ccc1O [Compound 155]
inhibition at 1 µg/mL [1]: 85.6%
inhibition at 10 µg/mL [2]: 94.1%

Compound: O=C(Nc1cc(C(F)(F)F)ccc1N1CCOCC1)c1cc(Br)ccc1O [Compound 127]
inhibition at 1 µg/mL [1]: 81.8%
inhibition at 10 µg/mL [2]: 86.4%

Compound: O=C(Nc1cccc(Cl)c1)c1cc(Br)ccc1O [Compound 140]
inhibition at 1 µg/mL [1]: 94.2%
inhibition at 10 µg/mL [2]: 96.7%

Compound: O=C(NCc1cc(C(F)(F)F)cc(C(F)(F)F)c1)c1cc(Br)ccc1O [Compound 1, N-{[3,5-bis(trifluoromethyl)phenyl]methyl}-5-bromo-2-hydroxybenzamide]
inhibition at 1 µg/mL [1]: -33.6%
inhibition at 10 µg/mL [2]: 54.4%

Compound: O=C(Nc1nc(C(F)(F)F)c(Br)s1)c1cc(Br)ccc1O [Compound 182]
inhibition at 1 µg/mL [1]: 85.3%
inhibition at 10 µg/mL [2]: 94.4%

Compound: O=C(Nc1cc(C(F)(F)F)cc(C(F)(F)F)c1)c1cc(-c2ccccc2)ccc1O [Compound 67]
inhibition at 1 µg/mL [1]: 91.8%
inhibition at 10 µg/mL [2]: 96.8%

Compound: O=C(Nc1cc(C(F)(F)F)cc(C(F)(F)F)c1)c1cc(Br)ccc1O [Compound 51]
inhibition at 1 µg/mL [1]: 94.9%
inhibition at 10 µg/mL [2]: 98.6%

Compound: O=C(Nc1cc(C(F)(F)F)cc(C(F)(F)F)c1)c1cc(Cl)ccc1O [Compound 50]
inhibition at 1 µg/mL [1]: 96.3%
inhibition at 10 µg/mL [2]: 99.5%

Compound: Cc1ccc(C(F)(F)F)cc1NC(=O)c1cc(Cl)ccc1O [Compound 120]
inhibition at 1 µg/mL [1]: 93.8%
inhibition at 10 µg/mL [2]: 97.9%

Compound: O=C(Nc1cc(C(F)(F)F)cc(C(F)(F)F)c1)c1cc(Cl)cnc1O [Compound 24, N-[3,5-Bis(trifluoromethyl)phenyl]-5-chloro-2-hydroxypyridine-3-carboxamide]
inhibition at 1 µg/mL [1]: 58.1%
inhibition at 10 µg/mL [2]: 82.2%

Compound: Cc1c(NC(=O)c2cc(Cl)ccc2O)cccc1C(F)(F)F [Compound 118]
inhibition at 1 µg/mL [1]: 94.1%
inhibition at 10 µg/mL [2]: 96.3%

Compound: CSc1ccc(C(F)(F)F)cc1NC(=O)c1cc(Cl)ccc1O [Compound 125]
inhibition at 1 µg/mL [1]: 94.6%
inhibition at 10 µg/mL [2]: 99.1%

Compound: CC(O)c1ccc(O)c(C(=O)Nc2cc(C(F)(F)F)cc(C(F)(F)F)c2)c1 (stereo not shown) [Compound 57]
inhibition at 1 µg/mL [1]: 76.8%
inhibition at 10 µg/mL [2]: 96%

Compound: O=C(Nc1cc(C(F)(F)F)cc(C(F)(F)F)c1)c1cc(C(F)(F)F)ccc1O [Compound 69]
inhibition at 1 µg/mL [1]: 96.4%
inhibition at 10 µg/mL [2]: 99.6%

Compound: O=C(Nc1nc(-c2ccccc2)c(-c2ccccc2)s1)c1cc(Br)ccc1O [Compound 204]
inhibition at 1 µg/mL [1]: -5.3%
inhibition at 10 µg/mL [2]: 67%

Compound: O=C(Nc1ccc(Cl)cc1)c1cc(Br)ccc1O [Compound 141]
inhibition at 1 µg/mL [1]: 83.3%
inhibition at 10 µg/mL [2]: 96.4%

Compound: O=C(Nc1cc(C(F)(F)F)cc(C(F)(F)F)c1)c1ccccc1O [Compound 48]
inhibition at 1 µg/mL [1]: 93.3%
inhibition at 10 µg/mL [2]: 95.6%

Compound: O=C(Nc1cc(Cl)cc(Cl)c1)c1cc(Br)cc(Br)c1O [Compound 150]
inhibition at 1 µg/mL [1]: 91.4%
inhibition at 10 µg/mL [2]: 95.1%

Compound: O=C(Nc1cc(C(F)(F)F)ccc1F)c1cc(Cl)ccc1O [Compound 112]
inhibition at 1 µg/mL [1]: 93.1%
inhibition at 10 µg/mL [2]: 95.9%

Compound: O=C(Nc1cc(F)cc(F)c1)c1cc(Br)ccc1O [Compound 144]
inhibition at 1 µg/mL [1]: 91.8%
inhibition at 10 µg/mL [2]: 96.8%

Compound: O=C(Nc1cc(Cl)cc(Cl)c1)c1cc(Cl)ccc1O [Compound 147]
inhibition at 1 µg/mL [1]: 84.5%
inhibition at 10 µg/mL [2]: 96.8%

Compound: C[Si](C)(C)C#Cc1ccc(O)c(C(=O)Nc2cc(C(F)(F)F)cc(C(F)(F)F)c2)c1 [Compound 66]
inhibition at 1 µg/mL [1]: 91.1%
inhibition at 10 µg/mL [2]: 94.9%

Compound: O=C(Nc1ccc([N+](=O)[O-])c(C(F)(F)F)c1)c1cc(Cl)ccc1O [Compound 115]
inhibition at 1 µg/mL [1]: 89%
inhibition at 10 µg/mL [2]: 94.3%

Compound: O=C(Nc1cc(Cl)ccc1Cl)c1cc(Cl)ccc1O [Compound 142]
inhibition at 1 µg/mL [1]: 95.1%
inhibition at 10 µg/mL [2]: 96.9%

Compound: COc1ccc(NC(=O)c2cc(Cl)ccc2O)cc1C(F)(F)F [Compound 121]
inhibition at 1 µg/mL [1]: 85.5%
inhibition at 10 µg/mL [2]: 96.5%

Compound: O=C(Nc1ccc(S(=O)(=O)F)cc1)c1ccc2ccccc2c1O [Compound 22, {[(1-Hydroxynaphthalen-2-yl)carbonyl]amino}benzenesulfonyl fluoride]
The rate of inhibitory activity against NF-κB activation (%) [1]: 37.0%
The rate of inhibitory activity against NF-κB activation (%) [2]: 92.9%

The rate of inhibitory activity against NF-κB activation (%) [1]: −7.1%
The rate of inhibitory activity against NF-κB activation (%) [2]: 63.8%
Compound: O=S(=O)(Nc1cc(Cl)ccc1O)c1cc(Cl)cc(Cl)c1 [Compound 13, N-(5-Chloro-2-hydroxyphenyl)-3,5-dichlorobenesulfonamide]

Compound: O=C(Nc1cccc(C(F)(F)F)c1F)c1cc(Cl)ccc1O [Compound 107]
inhibition at 1 µg/mL [1]: 92.3%
inhibition at 10 µg/mL [2]: 95%

Compound: O=C(Nc1cc(C(F)(F)F)cc(C(F)(F)F)c1)c1ccc2ccccc2c1O [Compound 21, N-[3,5-Bis(trifluoromethyl)phenyl]-1-hydroxy-2-naphthamide]
inhibition at 1 µg/mL [1]: 89.6%
inhibition at 10 µg/mL [2]: 95%

Compound: CCc1nc(NC(=O)c2cc(Br)ccc2O)sc1-c1ccccc1 [Compound 192]
inhibition at 1 µg/mL [1]: 28.8%
inhibition at 10 µg/mL [2]: 87.6%

Compound: COc1ccc(-c2ccccc2)cc1NC(=O)c1cc(Cl)ccc1O [Compound 166]
inhibition at 1 µg/mL [1]: 82.4%
inhibition at 10 µg/mL [2]: 97.9%

Compound: CC(=O)Oc1ccc(Cl)cc1C(=O)Nc1cc(C(F)(F)F)cc(C(F)(F)F)c1 [Compound 96]
inhibition at 1 µg/mL [1]: 96.5%
inhibition at 10 µg/mL [2]: 99.2%

Compound: COCc1ccc(C(=O)C=Cc2ccc3c(c2)OCCCO3)c(O)c1 [Compound 8, 3-(3,4-Dihydro-2H benzo[b][1,4]dioxepin-7-yl)-1-[2-hydroxy-4-(methoxylmethyl)phenyl]propen-1-one]
inhibition at 1 µg/mL [1]: 35.3%
inhibition at 10 µg/mL [2]: 59.9%

Compound: O=C(Nc1cc(Cl)c(O)c(Cl)c1)c1cc(Br)ccc1O [Compound 156]
inhibition at 1 µg/mL [1]: 7.3%
inhibition at 10 µg/mL [2]: 74.9%

Compound: O=C(Nc1ccc(F)c(C(F)(F)F)c1)c1cc(Cl)ccc1O [Compound 108]
inhibition at 1 µg/mL [1]: 94.7%
inhibition at 10 µg/mL [2]: 97.6%

Compound: Cc1cc(C)cc(NC(=O)c2cc(Br)ccc2O)c1 [Compound 161]
inhibition at 1 µg/mL [1]: 86.3%
inhibition at 10 µg/mL [2]: 92.6%

Compound: O=C(Nc1cc(Cl)cc(Cl)c1)c1c(O)ccc2ccccc12 [Compound 18, N-(3,5-Dichlorophenyl)-2-hydroxy-1-naphthamide]
inhibition at 1 µg/mL [1]: 85.3%
inhibition at 10 µg/mL [2]: 90.2%

Compound: O=C(Nc1cc(C(F)(F)F)cc(C(F)(F)F)c1)c1cc(C(F)(F)C(F)(F)F)ccc1O [Compound 70]
inhibition at 1 µg/mL [1]: 93.3%
inhibition at 10 µg/mL [2]: 95.4%

Compound: O=C(Nc1cc(Cl)cc(Cl)c1)c1cc([N+](=O)[O-])ccc1O [Compound 152]
inhibition at 1 µg/mL [1]: -56.8%
inhibition at 10 µg/mL [2]: 70.6%

Compound: O=C(Nc1cc(C(F)(F)F)ccc1Cl)c1cc(Cl)ccc1O [Compound 113]
inhibition at 1 µg/mL [1]: 94.8%
inhibition at 10 µg/mL [2]: 97.1%

Compound: O=C(Nc1cc(C(F)(F)F)cc(C(F)(F)F)c1)c1cc(NC(=S)Nc2ccccc2)ccc1O [Compound 92]
inhibition at 1 µg/mL [1]: 51.8%
inhibition at 10 µg/mL [2]: 97.2%
